pIC50: −log10 of the molar value.
What follows are molecules tested against T1, Met kinase (Homo sapiens, UniProt P08581) (assay: Met kinase inhibition, cell assay).
Format: cell-based
Target sequence in this assay (P08581 25-1390): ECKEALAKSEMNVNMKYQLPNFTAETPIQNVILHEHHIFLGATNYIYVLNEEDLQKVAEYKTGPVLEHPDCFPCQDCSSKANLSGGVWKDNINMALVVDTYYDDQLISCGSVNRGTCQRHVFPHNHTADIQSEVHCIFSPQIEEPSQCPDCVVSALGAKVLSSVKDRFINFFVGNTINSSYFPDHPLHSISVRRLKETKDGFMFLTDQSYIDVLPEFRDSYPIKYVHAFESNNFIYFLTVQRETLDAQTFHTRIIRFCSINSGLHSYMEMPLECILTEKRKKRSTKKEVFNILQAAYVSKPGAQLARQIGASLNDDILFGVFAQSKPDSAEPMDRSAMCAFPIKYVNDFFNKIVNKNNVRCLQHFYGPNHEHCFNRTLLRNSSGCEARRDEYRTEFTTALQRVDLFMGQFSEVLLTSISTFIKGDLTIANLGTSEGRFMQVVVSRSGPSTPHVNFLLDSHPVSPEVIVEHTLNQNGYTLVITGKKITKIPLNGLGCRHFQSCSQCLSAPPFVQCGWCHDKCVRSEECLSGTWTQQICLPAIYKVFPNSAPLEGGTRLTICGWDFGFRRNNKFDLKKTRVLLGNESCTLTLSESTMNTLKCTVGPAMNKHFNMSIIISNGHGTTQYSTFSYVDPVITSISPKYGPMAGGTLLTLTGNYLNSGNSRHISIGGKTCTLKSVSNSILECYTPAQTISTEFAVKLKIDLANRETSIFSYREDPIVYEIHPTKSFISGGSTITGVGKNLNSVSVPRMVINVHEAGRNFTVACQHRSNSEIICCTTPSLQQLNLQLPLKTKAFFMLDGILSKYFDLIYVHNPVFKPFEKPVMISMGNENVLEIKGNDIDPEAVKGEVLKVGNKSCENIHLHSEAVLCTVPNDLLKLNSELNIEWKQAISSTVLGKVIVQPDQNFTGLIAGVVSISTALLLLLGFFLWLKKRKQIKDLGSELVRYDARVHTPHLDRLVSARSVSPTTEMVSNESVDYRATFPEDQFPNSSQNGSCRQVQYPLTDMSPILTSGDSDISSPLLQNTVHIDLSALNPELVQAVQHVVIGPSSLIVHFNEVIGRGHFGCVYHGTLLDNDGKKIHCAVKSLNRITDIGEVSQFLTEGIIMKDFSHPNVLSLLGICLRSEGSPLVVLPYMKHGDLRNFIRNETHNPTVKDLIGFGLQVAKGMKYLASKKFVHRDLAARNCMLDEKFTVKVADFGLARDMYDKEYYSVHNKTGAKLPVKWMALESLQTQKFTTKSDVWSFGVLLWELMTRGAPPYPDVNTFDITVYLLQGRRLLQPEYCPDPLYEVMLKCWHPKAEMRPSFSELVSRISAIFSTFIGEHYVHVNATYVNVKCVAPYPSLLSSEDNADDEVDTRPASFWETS

pIC50 | Structure (SMILES)
6.00 to 8.00 | CCOCCN1CCN(c2nc(-c3cccc(Cn4nc(-c5cc(F)cc(F)c5)ccc4=O)c3)no2)CC1 [Compound A123, 6-(3,5-Difluorophenyl)-2-(3-{5-[4-(2-ethoxyethyl)-piperazin-1-yl]-1,2,4-oxadiazol-3-yl}benzyl)-2H-pyridazin-3-one]
6.00 to 8.00 | COCCCN1CCN(c2nc(-c3cccc(Cn4nc(-c5cc(F)cc(F)c5)ccc4=O)c3)no2)CC1 [Compound A124, 6-(3,5-Difluorophenyl)-2-(3-{5-[4-(3-methoxypropyl)-piperazin-1-yl]-1,2,4-oxadiazol-3-yl}benzyl)-2H-pyridazin-3-one]
6.00 to 8.00 | O=c1ccc(-c2cc(F)cc(F)c2)nn1Cc1cccc(-c2noc(N3CCN(CCO)CC3)n2)c1 [Compound A111, 6-(3,5-difluorophenyl)-2-(3-{5-[4-(2-hydroxyethyl)piperazin-1-yl]-1,2,4-oxadiazol-3-yl}benzyl)-2H-pyridazin-3-one]

The molecules below were run against T1, Met kinase (assay: Met kinase inhibition, enzyme assay (flashplate method)).
Format: biochemical
Parameters: 6His (N); purchased Upstate 14-526; host or cells: Sf21 insect cells (S. frugiperda), baculovirus
Description: Flashplate Method (Met Kinase)
The test plates used are 96-well Flashplate® microtitre plates from Perkin Elmer (Cat. No. SMP200). The components of the kinase reaction described below are pipetted into the assay plate. The Met kinase and the substrate poly Ala-Glu-Lys-Tyr, (pAGLT, 6:2:5:1), are incubated for 3 hrs at room temperature with radioactively labelled ^33P-ATP in the presence and absence of test substances in a total volume of 100 μl. The reaction is terminated using 150 μl of a 60 mM EDTA solution. After incubation for a further 30 min at room temperature, the supernatants are filtered off with suction, and the wells are washed three times with 200 μl of 0.9% NaCl solution each time. The measurement of the bound radioactivity is carried out by means of a scintillation measuring instrument (Topcount NXT, Perkin-Elmer).
The full value used is the inhibitor-free kinase reaction. This should be approximately in the range 6000-9000 cpm. The pharmacological zero value used is staurosporin in a final concentration of 0.1 mM. The inhibitory values (IC50) are determined using the RS1_MTS program.
Kinase reaction conditions per well:
10 μl of substance to be tested in assay buffer with 10% of DMSO
10 μl of ATP (final concentration 1 μM cold, 0.35 μCi of ^33P-ATP)
50 μl of Met kinase/substrate mixture in assay buffer;
Target sequence in this assay (P08581 974-1390 limits assumed): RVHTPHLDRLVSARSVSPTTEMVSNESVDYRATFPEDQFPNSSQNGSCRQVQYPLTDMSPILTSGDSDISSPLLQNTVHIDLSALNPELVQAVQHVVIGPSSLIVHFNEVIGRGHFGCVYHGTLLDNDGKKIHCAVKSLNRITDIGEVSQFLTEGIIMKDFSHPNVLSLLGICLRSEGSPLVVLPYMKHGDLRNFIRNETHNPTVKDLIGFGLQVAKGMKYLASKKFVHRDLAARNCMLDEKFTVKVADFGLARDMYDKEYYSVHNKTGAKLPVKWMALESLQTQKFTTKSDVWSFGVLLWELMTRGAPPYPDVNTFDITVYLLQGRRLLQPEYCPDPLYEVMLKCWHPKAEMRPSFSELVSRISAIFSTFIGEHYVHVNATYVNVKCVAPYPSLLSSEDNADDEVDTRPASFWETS

Structure (SMILES) | pIC50
CN1CCN(C(=O)c2nc(-c3cccc(Cn4nc(-c5cc(F)cc(F)c5)ccc4=O)c3)no2)CC1 [Compound A21, 6-(3,5-difluorophenyl)-2-{3-[5-(4-methylpiperazine-1-carbonyl)-1,2,4-oxadiazol-3-yl]benzyl}-2H-pyridazin-3-one] | 6.00 to 8.00
CN1CCC(N(C)c2nc(-c3cccc(Cn4nc(-c5cc(F)cc(F)c5)ccc4=O)c3)no2)CC1 [Compound A46, 6-(3,5-difluorophenyl)-2-(3-{5-[methyl-(1-methylpiperidin-4-yl)-amino]-1,2,4-oxadiazol-3-yl}benzyl)-2H-pyridazin-3-one] | 6.00 to 8.00
COCCN1CCN(c2nc(-c3cccc(Cn4nc(-c5cc(F)cc(F)c5)ccc4=O)c3)no2)CC1 [Compound A50, 6-(3,5-Difluorophenyl)-2-(3-{5-[4-(2-methoxyethyl)-piperazin-1-yl]-1,2,4-oxadiazol-3-yl}benzyl)-2H-pyridazin-3-one] | 6.00 to 8.00
O=c1ccc(-c2cc(F)cc(F)c2)nn1Cc1cccc(-c2noc(NCCN3CCOCC3)n2)c1 [Compound A22] | 6.00 to 8.00
CN1CCC(c2cnc(-c3cccc(Cn4nc(-c5cc(F)cc(F)c5)ccc4=O)c3)o2)CC1 [Compound A88, 6-(3,5-difluorophenyl)-2-{3-[5-(1-methylpiperidin-4-yl)oxazol-2-yl]benzyl}-2H-pyridazin-3-one] | 6.00 to 8.00
CCN1CCN(c2nc(-c3cccc(Cn4nc(-c5cc(F)cc(F)c5)ccc4=O)c3)no2)CC1 [Compound A48] | 6.00 to 8.00
Cc1nc(-c2cccc(Cn3nc(-c4cc(F)cc(F)c4)ccc3=O)c2)no1 [Compound A1, 6-(3,5-difluorophenyl)-2-[3-(5-methyl-1,2,4-oxadiazol-3-yl)benzyl]-2H-pyridazin-3-one] | 6.00 to 8.00

Second part, the molecule after the results:

pIC50 | Structure (SMILES)
6.00 to 8.00 | CCNc1nc(-c2cccc(Cn3nc(-c4cc(F)cc(F)c4)ccc3=O)c2)no1 [Compound A11, 6-(3,5-difluorophenyl)-2-[3-(5-ethylamino-1,2,4-oxadiazol-3-yl)benzyl]-2H-pyridazin-3-one]
6.00 to 8.00 | CN1CCN(c2nc(-c3cccc(Cn4nc(-c5cc(F)cc(F)c5)ccc4=O)c3)no2)CC1 [Compound A20, 6-(3,5-difluorophenyl)-2-{3-[5-(4-methylpiperazin-1-yl)-1,2,4-oxadiazol-3-yl]benzyl}-2H-pyridazin-3-one]
6.00 to 8.00 | Cc1cnc(-c2cccc(Cn3nc(-c4cccc(Cl)c4)ccc3=O)c2)o1 [Compound A33]
6.00 to 8.00 | CN(C)CCCNc1nc(-c2cccc(Cn3nc(-c4cc(F)cc(F)c4)ccc3=O)c2)no1 [Compound A12, 6-(3,5-difluorophenyl)-2-{3-[5-(3-dimethylaminopropylamino)-1,2,4-oxadiazol-3-yl]benzyl}-2H-pyridazin-3-one]
6.00 to 8.00 | O=c1ccc(-c2cc(F)cc(F)c2)nn1Cc1cccc(-c2ncc(C3CCNCC3)s2)c1 [Compound A91, 6-(3,5-difluorophenyl)-2-[3-(5-piperidin-4-ylthiazol-2-yl)benzyl]-2H-pyridazin-3-one]
